Publication PMC8286840, “Identifying SARS-CoV-2 antiviral compounds by screening for small molecule inhibitors of Nsp3 papain-like protease” (Biochemical Journal, 2021)
Structures can show the parent of a compound that is named as a salt. Where two headings read alike, the source gives them in different places. Where a SMILES comes first, the peptide text is derived from it. Bridges are numbered along the chain shown (N, C = ends).

Tests used:
[1] = biological target: T1, SARS-CoV-2 PLpro (nsp3 1564–1878) (Severe acute respiratory syndrome coronavirus 2, UniProt P0DTD1); test: biochemical; set-up: FRET-quenched peptide (Pro3) cleavage by PLpro, 10 min pre-incubation, slope over 20 min, normalised to no-compound control; settings: low concentration screen, read-out: % of control remaining
[2] = biological target: T1, SARS-CoV-2 PLpro (nsp3 1564–1878); test: biochemical; set-up: FRET-quenched peptide (Pro3) cleavage by PLpro, 10 min pre-incubation, slope over 20 min, normalised to no-compound control; settings: high concentration screen, read-out: % of control remaining

CO[C@H]1C[C@@H]2CC[C@@H](C)[C@@](O)(O2)C(=O)C(=O)N2CCCC[C@H]2C(=O)O[C@H]([C@H](C)C[C@@H]2CC[C@@H](OC(=O)C(C)(CO)CO)[C@H](OC)C2)CC(=O)[C@H](C)/C=C(\C)[C@@H](O)[C@@H](OC)C(=O)[C@H](C)C[C@H](C)/C=C/C=C/C=C/1C [Temsirolimus]
remaining activity at 1.25 µM ([1]; Well no.=8412): 95.2%
remaining activity at 3.75 µM ([2]; Well no.=8412): 91.8%

COc1ccc2[nH]c([S+]([O-])Cc3ncc(C)c(OC)c3C)nc2n1 (stereo not shown) [Tenatoprazole]
remaining activity at 1.25 µM ([1]; Well no.=1950): 98.5%
remaining activity at 3.75 µM ([2]; Well no.=1950): 95.8%

Cc1cc(N2CCN([C@@H]3CN[C@H](C(=O)N4CCSC4)C3)CC2)n(-c2ccccc2)n1 [Teneligliptin hydrobromide]
remaining activity at 1.25 µM ([1]; Well no.=8110): 107%
remaining activity at 3.75 µM ([2]; Well no.=8110): 106%

CC(C)OC(=O)OCOP(=O)(CO[C@H](C)Cn1cnc2c(N)ncnc21)OCOC(=O)OC(C)C [Tenofovir Disoproxil Fumarate]
remaining activity at 1.25 µM ([1]; Well no.=4811): 97.8%
remaining activity at 3.75 µM ([2]; Well no.=4811): 99.5%

CC(=O)Nc1ccc(NC(=S)NC(=O)c2ccc(C(C)(C)C)cc2)cc1 [Tenovin-1]
remaining activity at 1.25 µM ([1]; Well no.=4784): 95.1%
remaining activity at 1.25 µM ([1]; Well no.=7160): 98.9%
remaining activity at 3.75 µM ([2]; Well no.=4784): 96.5%

CC(C)(C)c1ccc(C(=O)NC(=S)Nc2ccc(N)cc2)cc1 [Tenovin-3]
remaining activity at 1.25 µM ([1]; Well no.=7072): 102%
remaining activity at 3.75 µM ([2]; Well no.=7072): 97.4%

CN(C)CCCCC(=O)Nc1ccc(NC(=S)NC(=O)c2ccc(C(C)(C)C)cc2)cc1 [Tenovin-6]
remaining activity at 1.25 µM ([1]; Well no.=6724): 93.8%
remaining activity at 3.75 µM ([2]; Well no.=6724): 92%

CN1C(C(=O)Nc2ccccn2)=C(O)c2sccc2S1(=O)=O [Tenoxicam]
remaining activity at 1.25 µM ([1]; Well no.=2299): 98.3%
remaining activity at 3.75 µM ([2]; Well no.=2299): 101%

COc1cc2nc(N3CCN(C(=O)C4CCCO4)CC3)nc(N)c2cc1OC (stereo not shown) [Terazosin (hydrochloride dihydrate)]
remaining activity at 1.25 µM ([1]; Well no.=7519): 98.6%
remaining activity at 3.75 µM ([2]; Well no.=7519): 84.5%

COc1cc2nc(N3CCN(C(=O)C4CCCO4)CC3)nc(N)c2cc1OC (stereo not shown) [Terazosin hydrochloride]
remaining activity at 1.25 µM ([1]; Well no.=1241): 98.7%
remaining activity at 3.75 µM ([2]; Well no.=1241): 92.5%

COc1cc2nc(N3CCN(C(=O)C4CCCO4)CC3)nc(N)c2cc1OC (stereo not shown) [Terazosin]
remaining activity at 1.25 µM ([1]; Well no.=2301): 90.8%
remaining activity at 3.75 µM ([2]; Well no.=2301): 89.8%

CN(C/C=C/C#CC(C)(C)C)Cc1cccc2ccccc12 [Terbinafine]
remaining activity at 1.25 µM ([1]; Well no.=1580): 95%
remaining activity at 3.75 µM ([2]; Well no.=1580): 97.8%

CC(C)(C)NCC(O)c1cc(O)cc(O)c1 (stereo not shown) [Terbutaline (sulfate)]
remaining activity at 1.25 µM ([1]; Well no.=6709): 106%
remaining activity at 3.75 µM ([2]; Well no.=6709): 106%

CC(C)(C)NCC(O)c1cc(O)cc(O)c1 (stereo not shown) [Terbutaline hemisulfate]
remaining activity at 1.25 µM ([1]; Well no.=1189): 98.5%
remaining activity at 3.75 µM ([2]; Well no.=1189): 100%

O=C(O)c1ccc(C(=O)O)cc1 [Terephthalic acid]
remaining activity at 1.25 µM ([1]; Well no.=7501): 106%
remaining activity at 3.75 µM ([2]; Well no.=7501): 103%

CC(C)(C)c1ccc(C(O)CCCN2CCC(C(O)(c3ccccc3)c3ccccc3)CC2)cc1 (stereo not shown) [Terfenadine]
remaining activity at 1.25 µM ([1]; Well no.=1232): 100%
remaining activity at 1.25 µM ([1]; Well no.=1742): 97.7%
remaining activity at 1.25 µM ([1]; Well no.=6598): 103%
remaining activity at 3.75 µM ([2]; Well no.=1232): 102%
remaining activity at 3.75 µM ([2]; Well no.=1742): 98.6%
remaining activity at 3.75 µM ([2]; Well no.=6598): 104%

NCCCC[C@H](NC(=O)[C@@H]1CCCN1C(=O)[C@@H]1CSSC[C@H](NC(=O)CNC(=O)CNC(=O)CN)C(=O)N[C@@H](Cc2ccc(O)cc2)C(=O)N[C@@H](Cc2ccccc2)C(=O)N[C@@H](CCC(N)=O)C(=O)N[C@@H](CC(N)=O)C(=O)N1)C(=O)NCC(N)=O [Terlipressin] (H-GGGCYFQNCPKG-NH2; disulfide 4-9)
remaining activity at 1.25 µM ([1]; Well no.=8103): 106%
remaining activity at 3.75 µM ([2]; Well no.=8103): 104%

CC(CC(c1ccccc1)c1ccccc1)NC(C)(C)C (stereo not shown) [Terodiline hydrochloride]
remaining activity at 1.25 µM ([1]; Well no.=5438): 94.4%
remaining activity at 3.75 µM ([2]; Well no.=5438): 99.3%

Cc1ccc2c(c1CCC(=O)O)CC[C@@H](NS(=O)(=O)c1ccc(Cl)cc1)C2 [Terutroban]
remaining activity at 1.25 µM ([1]; Well no.=7149): 93.3%
remaining activity at 3.75 µM ([2]; Well no.=7149): 94.2%

COc1cc2c(cc1OC)[C@H]1CC(=O)[C@H](CC(C)C)CN1CC2 [Tetrabenazine]
remaining activity at 1.25 µM ([1]; Well no.=7492): 94.6%
remaining activity at 3.75 µM ([2]; Well no.=7492): 94.7%

CCCCNc1ccc(C(=O)OCCN(C)C)cc1 [Tetracaine hydrochloride]
remaining activity at 1.25 µM ([1]; Well no.=1228): 97.1%
remaining activity at 3.75 µM ([2]; Well no.=1228): 97.5%

CCCCCCCCCCCCCCCCCCCCCCCC(=O)O [Tetracosanoic acid]
remaining activity at 1.25 µM ([1]; Well no.=4502): 92.1%
remaining activity at 3.75 µM ([2]; Well no.=4502): 94.2%

CN(C)[C@@H]1C(O)=C(C(N)=O)C(=O)[C@@]2(O)C(O)=C3C(=O)c4c(O)cccc4[C@@](C)(O)[C@H]3C[C@@H]12 [Tetracycline]
remaining activity at 1.25 µM ([1]; Well no.=1948): 95.4%
remaining activity at 3.75 µM ([2]; Well no.=1948): 93.7%

CCCCCCCCCCCCCC(=O)O [Tetradecanoic acid]
remaining activity at 1.25 µM ([1]; Well no.=4266): 102%
remaining activity at 3.75 µM ([2]; Well no.=4266): 95.8%

CC[N+](CC)(CC)CC [Tetraethylammonium chloride]
remaining activity at 1.25 µM ([1]; Well no.=1475): 93.2%
remaining activity at 3.75 µM ([2]; Well no.=1475): 89%

COc1ccc2c(c1OC)CN1CCc3cc4c(cc3C1C2)OCO4 (stereo not shown) [Tetrahydroberberine]
remaining activity at 1.25 µM ([1]; Well no.=6656): 97.9%
remaining activity at 3.75 µM ([2]; Well no.=6656): 99.7%

C[C@H](O)[C@H](O)[C@H]1CNc2nc(N)[nH]c(=O)c2N1 [Tetrahydrobiopterin]
remaining activity at 1.25 µM ([1]; Well no.=6159): 108%
remaining activity at 3.75 µM ([2]; Well no.=6159): 109%

COc1cc(CCC(=O)CC(=O)CCc2ccc(O)c(OC)c2)ccc1O [Tetrahydrocurcumin]
remaining activity at 1.25 µM ([1]; Well no.=6199): 104%
remaining activity at 3.75 µM ([2]; Well no.=6199): 107%

COc1ccc(CC2NCCc3cc(OC)c(OC)cc32)cc1OC (stereo not shown) [Tetrahydropapaverine HCl]
remaining activity at 1.25 µM ([1]; Well no.=8290): 99.5%
remaining activity at 3.75 µM ([2]; Well no.=8290): 98%

c1ccc2c(c1)CCCC2C1=NCCN1 (stereo not shown) [Tetrahydrozoline (hydrochloride)]
remaining activity at 1.25 µM ([1]; Well no.=8099): 96.6%
remaining activity at 3.75 µM ([2]; Well no.=8099): 91.5%

c1ccc2c(c1)CCCC2C1=NCCN1 (stereo not shown) [Tetrahydrozoline hydrochloride]
remaining activity at 1.25 µM ([1]; Well no.=1239): 103%
remaining activity at 3.75 µM ([2]; Well no.=1239): 103%

CC(C)NP(=O)(NC(C)C)OP(=O)(NC(C)C)NC(C)C [Tetraisopropyl pyrophosphoramide]
remaining activity at 1.25 µM ([1]; Well no.=1473): 103%
remaining activity at 3.75 µM ([2]; Well no.=1473): 100%

Cc1nc(C)c(C)nc1C [Tetramethylpyrazine]
remaining activity at 1.25 µM ([1]; Well no.=4143): 98.6%
remaining activity at 3.75 µM ([2]; Well no.=4143): 97.4%

c1ccc(C2CN3CCSC3=N2)cc1 (stereo not shown) [Tetramisole hydrochloride]
remaining activity at 1.25 µM ([1]; Well no.=1521): 99.3%
remaining activity at 3.75 µM ([2]; Well no.=1521): 100%
